Measured values reported in patent publication US20100029657A1, “Bridged, Bicyclic Heterocyclic or Spiro Bicyclic Heterocyclic Derivatives of Pyrazolo[1, 5-A]Pyrimidines, Methods for Preparation and Uses Thereof” (Wyeth, priority 2008, published 2010).

These compounds were tested against T1, Flag/GST-tagged recombinant human B-Raf (Homo sapiens, UniProt P15056) (assay: B-Raf kinase assay (phosphorylation of GST-MEK1, phospho-MEK1 antibody/Europium detection)). Conditions: B-Raf IC50 Data for compounds of Formula A; read-out: Mean IC50.
T1 construct: Flag; GST; made in house; host or cells: Sf9 insect cells (B-Raf); E. coli (MEK1-GST)
T1 sequence (P15056 whole entry): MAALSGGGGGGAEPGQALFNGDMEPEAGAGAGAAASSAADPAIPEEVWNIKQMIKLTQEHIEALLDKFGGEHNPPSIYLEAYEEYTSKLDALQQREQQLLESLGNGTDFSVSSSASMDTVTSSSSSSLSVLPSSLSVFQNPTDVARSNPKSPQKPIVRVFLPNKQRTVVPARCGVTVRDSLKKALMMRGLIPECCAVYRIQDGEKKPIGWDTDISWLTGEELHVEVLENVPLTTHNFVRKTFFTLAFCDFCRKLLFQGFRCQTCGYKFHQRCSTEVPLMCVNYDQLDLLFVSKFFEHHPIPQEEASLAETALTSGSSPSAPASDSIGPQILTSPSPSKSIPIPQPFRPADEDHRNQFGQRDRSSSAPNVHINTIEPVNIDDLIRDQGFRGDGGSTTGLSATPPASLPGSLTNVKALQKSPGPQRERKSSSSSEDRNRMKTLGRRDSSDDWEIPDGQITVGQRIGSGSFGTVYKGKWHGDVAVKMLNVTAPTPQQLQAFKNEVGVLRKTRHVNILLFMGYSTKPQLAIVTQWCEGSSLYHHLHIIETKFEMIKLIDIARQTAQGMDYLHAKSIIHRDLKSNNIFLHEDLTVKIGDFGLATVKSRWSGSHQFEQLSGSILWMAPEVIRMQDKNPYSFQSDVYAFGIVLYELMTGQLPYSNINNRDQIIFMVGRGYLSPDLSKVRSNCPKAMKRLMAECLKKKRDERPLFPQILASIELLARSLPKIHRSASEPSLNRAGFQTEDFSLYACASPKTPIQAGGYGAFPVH
Format: biochemical
Procedure, shortened: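 Percent inhibition was calculated at each compound concentration from Europium time-resolved fluorescence (anti-phospho-MEK1, then Eu-conjugated anti-rabbit) after GST capture. The upstream kinase step used GST-MEK1 with 0.2 nM B-Raf for 45 min at room temperature in MOPS buffer, pH 7.2. It was started with a cocktail of 200 μM ATP and 40 mM MgCl2.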
Work on `CN1C[C@@H]2C[C@H]1CN2c1ccc(-c2ccnc3c(-c4cccc5[nH]ncc45)c(-c4ccncc4)nn23)c(Br)c1` [Example 190, 7-{2-bromo-4-[(1S,4S)-5-methyl-2,5-diazabicyclo[2.2.1]hept-2-yl]phenyl}-3-(1H-indazol-4-yl)-2-pyridin-4-ylpyrazolo[1,5-a]pyrimidine] yielded an IC50 of under 0.3 nM. Work on `C1=C(c2ccnc3c(-c4cccc5[nH]ncc45)c(-c4ccncc4)nn23)CCC2(C1)OCCO2` [Example 191, 7-(1,4-dioxaspiro[4.5]dec-7-en-8-yl)-3-(1H-indazol-4-yl)-2-pyridin-4-ylpyrazolo[1,5-a]pyrimidine] yielded an IC50 of 56.1 nM. For `C[N+]1([O-])C[C@@H]2C[C@H]1CN2c1cc(F)c(-c2ccnc3c(-c4cccc5[nH]ncc45)c(-c4ccncc4)nn23)c(F)c1` (stereo partly drawn) [Example 192, 7-{2,6-difluoro-4-[(1S,4S)-5-methyl-5-oxido-2,5-diazabicyclo[2.2.1]hept-2-yl]phenyl}-3-(1H-indazol-4-yl)-2-pyridin-4-ylpyrazolo[1,5-a]pyrimidine], the IC50 was 0.4 nM. Compound `c1cc(-c2c(-c3ccncc3)nn3c(-c4coc(CN5C[C@@H]6C[C@H]5CO6)c4)ccnc23)c2cn[nH]c2c1` [Example 193, 3-(1H-indazol-4-yl)-7-{5-[(1S,4S)-2-oxa-5-azabicyclo[2.2.1]hept-5-ylmethyl]furan-3-yl}-2-pyridin-4-ylpyrazolo[1,5-a]pyrimidine] has an IC50 of 18.8 nM. In the case of `CC(C)(C)OC(=O)N1C[C@@H]2C[C@H]1CN2Cc1cc(-c2ccnc3c(-c4cccc5[nH]ncc45)c(-c4ccncc4)nn23)co1` [Example 194, tert-butyl (1S,4S)-5-({4-[3-(1H-indazol-4-yl)-2-pyridin-4-ylpyrazolo[1,5-a]pyrimidin-7-yl]furan-2-yl}methyl)-2,5-diazabicyclo[2.2.1]heptane-2-carboxylate], the IC50 is reported as 9.1 nM. `c1cc(-c2c(-c3ccncc3)nn3c(-c4coc(CN5C[C@@H]6C[C@H]5CN6)c4)ccnc23)c2cn[nH]c2c1` [Example 195, 7-{5-[(1S,4S)-2,5-diazabicyclo[2.2.1]hept-2-ylmethyl]furan-3-yl}-3-(1H-indazol-4-yl)-2-pyridin-4-ylpyrazolo[1,5-a]pyrimidine] gave an IC50 of 13 nM. In the case of `CC(C)(C)OC(=O)N1C[C@@H]2C[C@H]1CN2Cc1ccc(-c2ccnc3c(-c4cccc5[nH]ncc45)c(-c4ccncc4)nn23)s1` [Example 196, tert-butyl (1S,4S)-5-({5-[3-(1H-indazol-4-yl)-2-pyridin-4-ylpyrazolo[1,5-a]pyrimidin-7-yl]thiophen-2-yl}methyl)-2,5-diazabicyclo[2.2.1]heptane-2-carboxylate], the IC50 is reported as 11.5 nM. Compound `c1cc(-c2c(-c3ccncc3)nn3c(-c4ccc(CN5C[C@@H]6C[C@H]5CO6)s4)ccnc23)c2cn[nH]c2c1` [Example 197, 3-(1H-indazol-4-yl)-7-{5-[(1S,4S)-2-oxa-5-azabicyclo[2.2.1]hept-5-ylmethyl]thiophen-2-yl}-2-pyridin-4-ylpyrazolo[1,5-a]pyrimidine] has an IC50 of 5.7 nM. For `c1cc(-c2c(-c3ccncc3)nn3c(-c4ccc(CN5C[C@@H]6C[C@H]5CN6)s4)ccnc23)c2cn[nH]c2c1` [Example 198, 7-{5-[(1S,4S)-2,5-diazabicyclo[2.2.1]hept-2-ylmethyl]thiophen-2-yl}-3-(1H-indazol-4-yl)-2-pyridin-4-ylpyrazolo[1,5-a]pyrimidine], the IC50 was 3.6 nM. `CCOC(=O)N1[C@@H]2CC[C@H]1C[C@@H](c1c(C)cnc3c(-c4cccc5[nH]ncc45)c(-c4ccncc4)nn13)C2` [Example 199, ethyl (3-endo)-3-[3-(1H-indazol-4-yl)-6-methyl-2-pyridin-4-ylpyrazolo[1,5-a]pyrimidin-7-yl]-8-azabicyclo[3.2.1]octane-8-carboxylate] showed an IC50 of 5.5 nM. `c1cc(-c2c(-c3ccncc3)nn3c(-c4ccc(N5CC6CCC(C5)O6)nc4)ccnc23)c2cn[nH]c2c1` [Example 200, 3-(1H-indazol-4-yl)-7-[6-(8-oxa-3-azabicyclo[3.2.1]oct-3-yl)pyridin-3-yl]-2-pyridin-4-ylpyrazolo[1,5-a]pyrimidine] showed an IC50 of 5.8 nM. In the case of `c1cc(-c2c(-c3ccncc3)nn3c(-c4ccc(N5C[C@@H]6C[C@H]5CO6)nc4)ccnc23)c2cn[nH]c2c1` [Example 201, 3-(1H-indazol-4-yl)-7-{6-[(1S,4S)-2-oxa-5-azabicyclo[2.2.1]hept-5-yl]pyridin-3-yl}-2-pyridin-4-ylpyrazolo[1,5-a]pyrimidine], the IC50 is reported as 8.4 nM. With `CC(C)(C)OC(=O)N1C[C@@H]2C[C@H]1CN2Cc1cccc(-c2ccnc3c(-c4cccc5[nH]ncc45)c(-c4ccncc4)nn23)c1` [Example 202, tert-butyl (1S,4S)-5-{3-[3-(1H-indazol-4-yl)-2-pyridin-4-ylpyrazolo[1,5-a]pyrimidin-7-yl]benzyl}-2,5-diazabicyclo[2.2.1]heptane-2-carboxylate] the IC50 was over 100 nM. `CC(C)(C)OC(=O)N1C[C@@H]2C[C@H]1CN2Cc1ccc(-c2ccnc3c(-c4cccc5[nH]ncc45)c(-c4ccncc4)nn23)cc1` [Example 203, tert-butyl (1S,4S)-5-{4-[3-(1H-indazol-4-yl)-2-pyridin-4-ylpyrazolo[1,5-a]pyrimidin-7-yl]benzyl}-2,5-diazabicyclo[2.2.1]heptane-2-carboxylate] showed an IC50 of 12 nM. For `c1cc(-c2c(-c3ccncc3)nn3c(-c4ccc(CN5C[C@@H]6C[C@H]5CO6)cc4)ccnc23)c2cn[nH]c2c1` [Example 204, 3-(1H-indazol-4-yl)-7-{4-[(1S,4S)-2-oxa-5-azabicyclo[2.2.1]hept-5-ylmethyl]phenyl}-2-pyridin-4-ylpyrazolo[1,5-a]pyrimidine], the IC50 was 10 nM. In the case of `Fc1cc(CN2C[C@@H]3C[C@H]2CN3)ccc1-c1ccnc2c(-c3cccc4[nH]ncc34)c(-c3ccncc3)nn12` [Example 205, 7-{4-[(1S,4S)-2,5-diazabicyclo[2.2.1]hept-2-ylmethyl]-2-fluorophenyl}-3-(1H-indazol-4-yl)-2-pyridin-4-ylpyrazolo[1,5-a]pyrimidine], the IC50 is reported as 0.35 nM. Compound `Fc1cc(CN2C[C@@H]3C[C@H]2CO3)ccc1-c1ccnc2c(-c3cccc4[nH]ncc34)c(-c3ccncc3)nn12` [Example 206, 7-{2-fluoro-4-[(1S,4S)-2-oxa-5-azabicyclo[2.2.1]hept-5-ylmethyl]phenyl}-3-(1H-indazol-4-yl)-2-pyridin-4-ylpyrazolo[1,5-a]pyrimidine] has an IC50 of 1.5 nM. `Fc1cc(CN2C[C@H]3C[C@@H]2CO3)ccc1-c1ccnc2c(-c3cccc4[nH]ncc34)c(-c3ccncc3)nn12` [Example 207, 7-{2-fluoro-4-[(1R,4R)-2-oxa-5-azabicyclo[2.2.1]hept-5-ylmethyl]phenyl}-3-(1H-indazol-4-yl)-2-pyridin-4-ylpyrazolo[1,5-a]pyrimidine] showed an IC50 of 0.5 nM. With `c1cc(CN2C[C@@H]3C[C@H]2CN3)cc(-c2ccnc3c(-c4cccc5[nH]ncc45)c(-c4ccncc4)nn23)c1` [Example 208, 7-{3-[(1S,4S)-2,5-diazabicyclo[2.2.1]hept-2-ylmethyl]phenyl}-3-(1H-indazol-4-yl)-2-pyridin-4-ylpyrazolo[1,5-a]pyrimidine] the IC50 was 42 nM. Compound `c1cc(-c2c(-c3ccncc3)nn3c(-c4ccc(CN5C[C@@H]6C[C@H]5CN6)cc4)ccnc23)c2cn[nH]c2c1` [Example 209, 7-{4-[(1S,4S)-2,5-diazabicyclo[2.2.1]hept-2-ylmethyl]phenyl}-3-(1H-indazol-4-yl)-2-pyridin-4-ylpyrazolo[1,5-a]pyrimidine] has an IC50 of 0.6 nM. For `Fc1cc(CN2C3COCC2COC3)ccc1-c1ccnc2c(-c3cccc4[nH]ncc34)c(-c3ccncc3)nn12` [Example 210, 9-{3-fluoro-4-[3-(1H-indazol-4-yl)-2-pyridin-4-ylpyrazolo[1,5-a]pyrimidin-7-yl]benzyl}-3,7-dioxa-9-azabicyclo[3.3.1]nonane], the IC50 was 0.7 nM. For “Ethyl 3-[3-(2-oxo-2,3-dihydro-1H-pyrrolo[2,3-b]pyridin-4-yl)-2-pyridin-4-ylpyrazolo[1,5-a]pyrimidin-7-yl-8-azabicyclo[3.2.1]octane-8-carboxylate [Example 86]”, the IC50 was 270 nM.
